Experiment [1] has as its target T1, recombinant human plasminogen activator inhibitor-1 (PAI-1) (Homo sapiens, UniProt P05121).
T1 construct: purchased Molecular Innovations, Royal Oak, Mich
The experiment in a line: Primary Screen for the PAI-1 Inhibition (residual tPA activity, chromogenic substrate Spectrozyme-tPA). Format: biochemical. The note with it: 140 nM PAI-1, 70 nM tPA, pH 6.6. The protocol: (§1) Test compounds are dissolved in DMSO at a final concentration of 10 mM, then diluted 101× in physiologic buffer. The inhibitory assay is initiated by the addition of the test compound (1-100 μM final concentration, maximum DMSO concentration of 0.2%) in a pH 6.6 buffer containing 140 nM recombinant human plasminogen activator inhibitor-1 (PAI-1; Molecular Innovations, Royal Oak, Mich.). Following a 1 hour incubation at room temperature, 70 nM of recombinant human tissue plasminogen activator (tPA) is added, and the combination of the test compound, PAI-1 and tPA is incubated for an additional 30 minutes. Following the second incubation, Spectrozyme-tPA (American Diagnostica, Greenwich, Conn.), a chromogenic substrate for tPA, is added and absorbance read at 405 nm at 0 and 60 minutes. Relative PAI-1 inhibition is equal to the residual tPA activity in the presence of the test compound and PAI-1. Control treatments include the complete inhibition of tPA by PAI-1 at the molar ratio employed (2:1), and the absence of any effect of the test compound on tPA alone.

In experiment [2] the target is T1, recombinant human plasminogen activator inhibitor-1 (PAI-1). Briefly: Kinetic IC50: modification of the Primary Screen for the PAI-1 Inhibition. The class given is biochemical. The protocol:
as §1

pIC50: −log10 of the molar value.

T1 sequence (P05121 24-402): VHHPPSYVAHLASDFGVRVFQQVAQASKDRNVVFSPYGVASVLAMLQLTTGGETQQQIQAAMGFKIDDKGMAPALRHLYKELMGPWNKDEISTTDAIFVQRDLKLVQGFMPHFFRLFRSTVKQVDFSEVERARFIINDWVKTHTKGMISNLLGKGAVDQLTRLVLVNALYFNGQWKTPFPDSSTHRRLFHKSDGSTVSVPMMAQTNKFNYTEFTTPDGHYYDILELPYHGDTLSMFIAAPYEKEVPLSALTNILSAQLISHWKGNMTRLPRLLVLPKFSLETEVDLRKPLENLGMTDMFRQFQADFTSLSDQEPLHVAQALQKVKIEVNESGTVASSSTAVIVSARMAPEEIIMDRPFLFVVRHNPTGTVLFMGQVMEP

A word on the inhibition: it is the share of the control response that was lost under treatment. Regarding `O=C(O)COc1ccc(-c2ccc(NC(=O)C3(c4ccc(Cl)cc4)CCCC3)cc2)cc1` [Compound 22, {[4′-({[1-(4-chlorophenyl)cyclopentyl]carbonyl}amino)-1,1′-biphenyl-4-yl]oxy}acetic acid], in experiment [1] (25 μM test compound), the inhibition at 25 µM was 30%. In addition, the inhibition at 100 µM in experiment [1] (100 μM test compound) stood at 89%.

The term pIC50 denotes −log10 of the IC50, conventionally taken in molar units. Consider `O=C(O)C(Cc1ccccc1)Oc1cccc(-c2ccc(NC(=O)C3(c4cccc(F)c4)CCCC3)cc2)c1` (stereo not drawn) [Compound 30, 2-{[4′-({[1-(3-fluorophenyl)cyclopentyl]carbonyl}amino)-1,1′-biphenyl-3-yl]oxy}-3-phenylpropanoic acid], for which the inhibition at 25 µM in experiment [1] (25 μM test compound) came out at 23%. In addition, the inhibition at 100 µM in experiment [1] (100 μM test compound) was determined as 73%. Besides, the pIC50 in experiment [2] is 4.76.

Regarding `O=C(O)C(Cc1ccccc1)Oc1cccc(-c2ccc(NC(=O)C3(c4ccc(Cl)cc4)CCC3)cc2)c1` (stereo not drawn) [Compound 39, 2-{[4′-({[1-(4-chlorophenyl)cyclobutyl]carbonyl}amino)-1,1′-biphenyl-3-yl]oxy}-3-phenylpropanoic acid], the inhibition at 25 µM in experiment [1] (25 μM test compound) worked out at 40%. Further, the inhibition at 100 µM in experiment [1] (100 μM test compound) came to 81%. Besides, the pIC50 in experiment [2] was 4.92.

Turning to `O=C(O)C(Cc1ccccc1)Oc1cccc(-c2ccc(NC(=O)C3(c4ccc(Cl)cc4)CCCC3)cc2)c1` (stereo not drawn) [Compound 26, 2-{[4′-({[1-(4-chlorophenyl)cyclopentyl]carbonyl}amino)-1,1′-biphenyl-3-yl]oxy}-3-phenylpropanoic acid], the inhibition at 25 µM in experiment [1] (25 μM test compound) was found to be 58%. Moreover, in experiment [1] (100 μM test compound), the inhibition at 100 µM turned out to be 69%. In addition, the negative-log IC50 (pIC50) in experiment [2] was 4.79.

`O=C(O)COc1ccc(-c2ccc(NC(=O)C3(c4ccc(Cl)cc4)CCC3)cc2)cc1` [Compound 35, {[4′-({[1-(4-chlorophenyl)cyclobutyl]carbonyl}amino)-1,1′-biphenyl-4-yl]oxy}acetic acid]: the inhibition at 25 µM in experiment [1] (25 μM test compound) worked out at 15%. Moreover, the inhibition at 100 µM in experiment [1] (100 μM test compound) came to 80%. Further, in experiment [2], the pIC50 is 4.41.

In the case of `O=C(O)C(Cc1ccccc1)Oc1ccc(-c2ccc(NC(=O)C3(c4cccc(F)c4)CCCC3)cc2)cc1` (stereo not drawn) [Compound 34, 2-{[4′-({[1-(3-fluorophenyl)cyclopentyl]carbonyl}amino)-1,1′-biphenyl-4-yl]oxy}-3-phenylpropanoic acid], the inhibition at 25 µM in experiment [1] (25 μM test compound) was found to be 33%. Besides, the inhibition at 100 µM in experiment [1] (100 μM test compound) amounted to 70%. In addition, in experiment [2], the pIC50 is 4.41.

For the compound `O=C(Nc1ccc(-c2ccc(OC(Cc3ccccc3)C(=O)O)cc2)cc1)c1ccc2ccccc2c1` (stereo not drawn) [Compound 55, 2-{[4′-(2-naphthoylamino)-1,1′-biphenyl-4-yl]oxy}-3-phenylpropanoic acid], in experiment [1] (25 μM test compound), the inhibition at 25 µM amounted to 26%. Also, the inhibition at 100 µM in experiment [1] (100 μM test compound) is 53%.

On to `Cn1cc(C(=O)N(Cc2ccccc2)Cc2ccc(-c3ccc(OCc4nnn[nH]4)c(Br)c3)cc2)c2ccccc21` [Compound 12, N-benzyl-N-{[3′-bromo-4′-(1H-tetraazol-5-ylmethoxy)-1,1′-biphenyl-4-yl]methyl}-1-methyl-1H-indole-3-carboxamide], for which, in experiment [1] (25 μM test compound), the inhibition at 25 µM was determined as 55%.

On to `O=C(O)COc1ccc(-c2ccc(CNC(=O)c3cnn(-c4ccccc4)c3C(F)(F)F)cc2)cc1` [Compound 1, ({4′-[({[1-phenyl-5-(trifluoromethyl)-1H-pyrazol-4-yl]carbonyl}amino)methyl][1,1′-biphenyl]-4-yl}oxy)acetic acid], for which the inhibition at 25 µM in experiment [1] (25 μM test compound) came to 1%. Besides, the inhibition at 100 µM in experiment [1] (100 μM test compound) came out at 60%.

As to `O=C(O)C(Cc1ccccc1)Oc1cccc(-c2ccc(NC(=O)C3(c4ccccc4)CC3)cc2)c1` (stereo not drawn) [Compound 53, 3-phenyl-2-[(4′-{[(1-phenylcyclopropyl)carbonyl]amino}-1,1′-biphenyl-3-yl)oxy]propanoic acid], the inhibition at 25 µM in experiment [1] (25 μM test compound) was determined as 19%. Besides, the inhibition at 100 µM in experiment [1] (100 μM test compound) was found to be 52%.

Turning to `O=C(O)COc1ccc(-c2ccc(NC(=O)C3(c4cccc(F)c4)CCCC3)cc2)cc1` [Compound 23, {[4′-({[1-(3-fluorophenyl)cyclopentyl]carbonyl}amino)-1,1′-biphenyl-4-yl]oxy}acetic acid], the inhibition at 25 µM in experiment [1] (25 μM test compound) worked out at 3%. For the same compound, the inhibition at 100 µM in experiment [1] (100 μM test compound) was determined as 77%.

Regarding `CCCc1ccc(-c2ccc(C(=O)Nc3ccc(-c4ccc(OC(Cc5ccccc5)C(=O)O)cc4)cc3)cc2)cc1` (stereo not drawn) [Compound 20, 3-phenyl-2-[(4′-{[(4′-propyl-1,1′-biphenyl-4-yl)carbonyl]amino}-1,1′-biphenyl-4-yl)oxy]propanoic acid], the inhibition at 25 µM in experiment [1] (25 μM test compound) is 40%. Also, the inhibition at 100 µM in experiment [1] (100 μM test compound) was determined as 66%.

As for `Cc1cc(C)c2c(c1C(=O)Nc1ccc(-c3cccc(OC(Cc4ccccc4)C(=O)O)c3)cc1)CC(C)(C)C2=O` (stereo not drawn) [Compound 54, 3-phenyl-2-[(4′-{[(2,2,5,7-tetramethyl-1-oxo-2,3-dihydro-1H-inden-4-yl)carbonyl]amino}-1,1′-biphenyl-3-yl)oxy]propanoic acid], in experiment [1] (25 μM test compound), the inhibition at 25 µM was 29%. Moreover, the inhibition at 100 µM in experiment [1] (100 μM test compound) was determined as 85%.

In the case of `CCCc1c(C(=O)NCc2ccc(-c3ccc(OCc4nnn[nH]4)c(Br)c3)cc2)cnn1-c1ccccc1` [Compound 5, N-{[3′-bromo-4′-(H-tetraazol-5-ylmethoxy)[1,1′-biphenyl]-4-yl]methyl}-1-phenyl-5-propyl-1H-pyrazole-4-carboxamide], the “% Inhibition 25 μM” value in experiment [1] (25 μM test compound) stood at 23%. In addition, the “% Inhibition 100 μM” value in experiment [1] (100 μM test compound) worked out at 73%.

In the case of `CCCCOc1ccc2cc(C(=O)Nc3ccc(-c4ccc(OC(Cc5ccccc5)C(=O)O)cc4)cc3)ccc2c1` (stereo not drawn) [Compound 56, 2-({4′-[(6-butoxy-2-naphthoyl)amino]-1,1′-biphenyl-4-yl}oxy)-3-phenylpropanoic acid], in experiment [1] (100 μM test compound), the inhibition at 100 µM was found to be 53%.

In the case of `CCCCc1oc2ccccc2c1C(=O)N(Cc1ccccc1)Cc1ccc(-c2ccc(OCc3nnn[nH]3)c(Br)c2)cc1` [Compound 11, N-benzyl-N-{[3′-bromo-4′-(1H-tetraazol-5-ylmethoxy)-1,1′-biphenyl-4-yl]methyl}-2-butyl-1-benzofuran-3-carboxamide], in experiment [1] (25 μM test compound), the inhibition at 25 µM is 53%.

As to `O=C(O)C(Cc1ccccc1)Oc1ccc(-c2ccc(NC(=O)C3(c4ccc(Cl)cc4)CCCC3)cc2)cc1` (stereo not drawn) [Compound 52, 2-{[4′-({[1-(4-chlorophenyl)cyclopentyl]carbonyl}amino)-1,1′-biphenyl-4-yl]oxy}-3-phenylpropanoic acid], in experiment [1] (25 μM test compound), the inhibition at 25 µM was 55%. Moreover, in experiment [1] (100 μM test compound), the inhibition at 100 µM came to 53%.

As to `O=C(Nc1ccc(-c2ccc(OC(Cc3ccccc3)C(=O)O)cc2)cc1)c1ccc(-c2ccc(Cl)cc2)o1` (stereo not drawn) [Compound 21, 2-[(4′-{[5-(4-chlorophenyl)-2-furoyl]amino}-1,1′-biphenyl-4-yl)oxy]-3-phenylpropanoic acid], the inhibition at 25 µM in experiment [1] (25 μM test compound) turned out to be 28%. Moreover, in experiment [1] (100 μM test compound), the inhibition at 100 µM worked out at 52%.

For the compound `O=C(O)C(Cc1ccccc1)Oc1cccc(-c2ccc(NC(=O)C3(c4ccc(Cl)cc4)CCCCC3)cc2)c1` (stereo not drawn) [Compound 51, 2-{[4′-({[1-(4-chlorophenyl)cyclohexyl]carbonyl}amino)-1,1′-biphenyl-3-yl]oxy}-3-phenylpropanoic acid], the inhibition at 25 µM in experiment [1] (25 μM test compound) was found to be 46%. In experiment [1] (100 μM test compound), the inhibition at 100 µM was 60%.

On to `O=C(Nc1ccc(-c2ccc(OC(Cc3ccccc3)C(=O)O)cc2)cc1)c1sc2ccccc2c1Cl` (stereo not drawn) [Compound 57, 2-[(4′-{[(3-chloro-1-benzothien-2-yl)carbonyl]amino}-1,1′-biphenyl-4-yl)oxy]-3-phenylpropanoic acid], for which the inhibition at 25 µM in experiment [1] (25 μM test compound) came to 34%. In experiment [1] (100 μM test compound), the inhibition at 100 µM stood at 58%.

For the origin of these results see US7534894B2, “Biphenyloxy-acids” (Wyeth, priority 2003, dated 2009).
